Test results taken from US20070049564A1 (Wyeth, priority 2005, published 2007).
Converted amounts (≈) assume the structure as drawn.

Assays:
Assay in all cases: MIC, broth microdilution
E. coli GC 2231 = conditions: Escherichia coli
S. aureus GC 1079 = conditions: Staphylococcus aureus
S. aureus GC 1131 = conditions: Staphylococcus aureus
S. aureus GC 6335 = conditions: Staphylococcus aureus
S. pyogenes GC 4563 = conditions: Streptococcus pyogenes
E. faecalis GC 2267 = conditions: Enterococcus faecalis
Protocol: (§1) Antimicrobial susceptibility testing. The in vitro activities of the antibiotics are determined by the broth microdilution method as recommended by the National Committee for Clinical Laboratory Standards (NCCLS) (1). Mueller-Hinton II broth (MHBII)(BBL Cockeysville, Md.) is the medium employed in the testing procedures. Microtiter plates containing serial dilutions of each antimicrobial agent are inoculated with each organism to yield the appropriate density (10^5 CFU/ml) in a 100 μl final volume. The plates are incubated for 18-22 hours at 35° C. in ambient air.
Representative compounds were first incubated in mouse serum for an hour prior to the in vitro testing against a panel of selected gram-positive and gram-negative bacteria strains. All compounds were also pre-incubated in water for an hour prior to testing as control.

S. pneumoniae+ GC 4465 = conditions: Streptococcus pneumoniae
E. faecium GC 2243 = conditions: Enterococcus faecium
S. typhimurium GC 2172 = conditions: Salmonella enterica, TYPHIMURIUM
E. coli GC 2232 = conditions: Escherichia coli
S. aureus GC 6466 = conditions: Staphylococcus aureus
S. pneumoniae* GC 4465 = conditions: Streptococcus pneumoniae
E. coli GC 3226 = conditions: Escherichia coli
S. epidermidis GC 4935 = conditions: Staphylococcus epidermidis
c. albicans GC 3066 = system: c. albicans GC 3066
E. coli GC 2272 = conditions: Escherichia coli
Protocol: as §1
Representative compounds were first incubated in mouse serum for an hour prior to the in vitro testing against a panel of selected gram-positive and gram-negative bacteria strains. All compounds were also pre-incubated in water for an hour prior to testing as control. Representative compounds of Formula I were incubated in human serum prior to MIC determination.

S. aureus GC 2216 = conditions: Staphylococcus aureus
E. faecium GC 4556 = conditions: Enterococcus faecium
E. coli GC 2234 = conditions: Escherichia coli

Question: What does the source list for `CN(C)c1cc(NC(=O)CN(C(=O)OCOC(=O)CCC2CCCCC2)C(C)(C)C)c(O)c2c1C[C@H]1C[C@H]3[C@H](N(C)C)C(O)=C(C(N)=O)C(=O)[C@@]3(O)C(O)=C1C2=O` [Example 63, ({[(2-{[(5aR,6aS,7S,10aS)-9-(aminocarbonyl)-4,7-bis(dimethylamino)-1,8,10a,11-tetrahydroxy-10,12-dioxo-5,5a,6,6a,7,10,10a,12-octahydrotetracen-2-yl]amino}-2-oxoethyl)(tert-butyl)amino]carbonyl}oxy)methyl 3-cyclohexylpropanoate]?
Answer: MIC (E. coli GC 2231; GC2231, pre-incubation in human serum): > 64 µg/mL; MIC (E. coli GC 2231; GC2231, pre-incubation in mouse serum): 1 µg/mL (≈ 1.25 µM); MIC (E. coli GC 2231; GC2231, pre-incubation in water): > 64 µg/mL; MIC (S. aureus GC 1079; GC1079, pre-incubation in human serum): 2 µg/mL (≈ 2.51 µM); MIC (S. aureus GC 1079; GC1079, pre-incubation in mouse serum): 1 µg/mL (≈ 1.25 µM); MIC (S. aureus GC 1079; GC1079, pre-incubation in water): 8 µg/mL (≈ 10 µM); MIC (S. aureus GC 1131; GC1131, pre-incubation in human serum): 1 µg/mL (≈ 1.25 µM); MIC (S. aureus GC 1131; GC1131, pre-incubation in mouse serum): 1 µg/mL (≈ 1.25 µM); MIC (S. aureus GC 1131; GC1131, pre-incubation in water): 4 µg/mL (≈ 5.01 µM); MIC (S. aureus GC 6335; GC6335, pre-incubation in human serum): 1 µg/mL (≈ 1.25 µM); MIC (S. aureus GC 6335; GC6335, pre-incubation in mouse serum): 1 µg/mL (≈ 1.25 µM); MIC (S. aureus GC 6335; GC6335, pre-incubation in water): 4 µg/mL (≈ 5.01 µM); MIC (S. pyogenes GC 4563; GC4563, pre-incubation in human serum): 0.12 µg/mL (≈ 0.15 µM); MIC (S. pyogenes GC 4563; GC4563, pre-incubation in mouse serum): 0.12 µg/mL (≈ 0.15 µM); MIC (S. pyogenes GC 4563; GC4563, pre-incubation in water): 0.12 µg/mL (≈ 0.15 µM); MIC (E. faecalis GC 2267; GC2267, pre-incubation in human serum): 2 µg/mL (≈ 2.51 µM); MIC (E. faecalis GC 2267; GC2267, pre-incubation in mouse serum): 1 µg/mL (≈ 1.25 µM); MIC (E. faecalis GC 2267; GC2267, pre-incubation in water): 16 µg/mL (≈ 20.1 µM); MIC (S. pneumoniae+ GC 4465; pre-incubation in human serum): 0.5 µg/mL (≈ 0.627 µM); MIC (S. pneumoniae+ GC 4465; pre-incubation in mouse serum): 0.5 µg/mL (≈ 0.627 µM); MIC (S. pneumoniae+ GC 4465; pre-incubation in water): 0.5 µg/mL (≈ 0.627 µM); MIC (E. faecium GC 2243; GC2243, pre-incubation in human serum): 0.25 µg/mL (≈ 0.313 µM); MIC (E. faecium GC 2243; GC2243, pre-incubation in mouse serum): 0.25 µg/mL (≈ 0.313 µM); MIC (E. faecium GC 2243; GC2243, pre-incubation in water): 0.5 µg/mL (≈ 0.627 µM); MIC (S. typhimurium GC 2172; pre-incubation in human serum): > 64 µg/mL; MIC (S. typhimurium GC 2172; pre-incubation in mouse serum): 2 µg/mL (≈ 2.51 µM); MIC (S. typhimurium GC 2172; pre-incubation in water): > 64 µg/mL; MIC (E. coli GC 2232; GC2232, pre-incubation in human serum): > 64 µg/mL; MIC (E. coli GC 2232; GC2232, pre-incubation in mouse serum): 1 µg/mL (≈ 1.25 µM); MIC (E. coli GC 2232; GC2232, pre-incubation in water): > 64 µg/mL; MIC (S. aureus GC 6466; GC6466, pre-incubation in human serum): 1 µg/mL (≈ 1.25 µM); MIC (S. aureus GC 6466; GC6466, pre-incubation in mouse serum): 0.5 µg/mL (≈ 0.627 µM); MIC (S. aureus GC 6466; GC6466, pre-incubation in water): 2 µg/mL (≈ 2.51 µM); MIC (S. pneumoniae* GC 4465; pre-incubation in human serum): 0.12 µg/mL (≈ 0.15 µM); MIC (S. pneumoniae* GC 4465; pre-incubation in mouse serum): 0.12 µg/mL (≈ 0.15 µM); MIC (S. pneumoniae* GC 4465; pre-incubation in water): 0.12 µg/mL (≈ 0.15 µM); MIC (E. coli GC 3226; GC3226, pre-incubation in human serum): > 64 µg/mL; MIC (E. coli GC 3226; GC3226, pre-incubation in mouse serum): 1 µg/mL (≈ 1.25 µM); MIC (E. coli GC 3226; GC3226, pre-incubation in water): > 64 µg/mL; MIC (S. epidermidis GC 4935; GC4935, pre-incubation in human serum): 2 µg/mL (≈ 2.51 µM); MIC (S. epidermidis GC 4935; GC4935, pre-incubation in mouse serum): 2 µg/mL (≈ 2.51 µM); MIC (S. epidermidis GC 4935; GC4935, pre-incubation in water): 4 µg/mL (≈ 5.01 µM); MIC (c. albicans GC 3066; Candida albicans, GC3066): > 64 µg/mL; MIC (c. albicans GC 3066; pre-incubation in human serum): >64 UG/ML; MIC (c. albicans GC 3066; pre-incubation in mouse serum): >64 UG/ML; MIC (E. coli GC 2272; GC2272, pre-incubation in human serum): > 64 µg/mL; MIC (E. coli GC 2272; GC2272, pre-incubation in mouse serum): 1 µg/mL (≈ 1.25 µM); MIC (E. coli GC 2272; GC2272, pre-incubation in water): > 64 µg/mL; MIC (S. aureus GC 2216; GC2216, pre-incubation in human serum): 1 µg/mL (≈ 1.25 µM); MIC (S. aureus GC 2216; GC2216, pre-incubation in mouse serum): 1 µg/mL (≈ 1.25 µM); MIC (S. aureus GC 2216; GC2216, pre-incubation in water): 4 µg/mL (≈ 5.01 µM); MIC (E. faecium GC 4556; GC4556, pre-incubation in human serum): 4 µg/mL (≈ 5.01 µM); MIC (E. faecium GC 4556; GC4556, pre-incubation in mouse serum): 1 µg/mL (≈ 1.25 µM); MIC (E. faecium GC 4556; GC4556, pre-incubation in water): 0.5 µg/mL (≈ 0.627 µM); MIC (E. coli GC 2234; GC2234, pre-incubation in human serum): 64 µg/mL (≈ 80.2 µM); MIC (E. coli GC 2234; GC2234, pre-incubation in mouse serum): 1 µg/mL (≈ 1.25 µM); MIC (E. coli GC 2234; GC2234, pre-incubation in water): > 64 µg/mL
